Tested on: 997537-175-T-J1-PDC complex spheroid viability
Experiment: Anticancer human tumor 997537-175-T-J1-PDC patient-derived colon adenocarcinoma cell line growth inhibition [GQUAD]
Conditions: for IC50: curve of first compound; for viability, T/C: stronger effect = lower value
Method in brief: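 Tumor cells were grown as complex spheroids with HUVEC endothelial cells and mesenchymal stem cells as stroma. G-quadruplex stabilizers were combined with targeted agents over half-log dilutions from near the clinical Cmax, or from 10 microM.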
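Further: spheroids exposed to the agents for 7 days.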
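Wherever viability, T/C is given: 100% = DMSO vehicle control viability.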

**Q.** CC(C)(O)C1CCC(Nc2ccc3ncc(-c4cccc(C(F)(F)F)c4)n3n2)CC1 (configuration not stated) + CN(C)c1ccc(Nc2c3ccc(NC(=O)CCN4CCCC4)cc3nc3cc(NC(=O)CCN4CCCC4)ccc23)cc1 was tested. Which IC50 (second compound 0.0316 µM) did it give?
**A.** 2030 nM

**Q.** And the IC50 (second compound 0.1 µM)?
**A.** 1820 nM

**Q.** What about the IC50 (second compound 0.316 µM) of the same molecule?
**A.** 1850 nM

**Q.** And the IC50 (second compound 1 µM)?
**A.** 2230 nM

**Q.** And the IC50 (second compound 3.16 µM)?
**A.** 1450 nM

**Q.** What about the IC50 (second compound 10 µM) of the same molecule?
**A.** 2020 nM

**Q.** What about the viability, T/C (second compound 0.0316 µM, first compound 0.0316 µM) of the same molecule?
**A.** 99.5%

**Q.** What about the viability, T/C (second compound 0.0316 µM, first compound 0.1 µM) of the same molecule?
**A.** 108%

**Q.** What about the viability, T/C (second compound 0.0316 µM, first compound 0.316 µM) of the same molecule?
**A.** 88%

**Q.** And the viability, T/C (second compound 0.0316 µM, first compound 1 µM)?
**A.** 65.8%

**Q.** What about the viability, T/C (second compound 0.0316 µM, first compound 3.16 µM) of the same molecule?
**A.** 41.1%

**Q.** What about the viability, T/C (second compound 0.0316 µM, first compound 10 µM) of the same molecule?
**A.** 26.1%

**Q.** And the viability, T/C (second compound 0.1 µM, first compound 0.0316 µM)?
**A.** 83.8%

**Q.** And the viability, T/C (second compound 0.1 µM, first compound 0.1 µM)?
**A.** 89.8%

**Q.** What about the viability, T/C (second compound 0.1 µM, first compound 0.316 µM) of the same molecule?
**A.** 78.2%

**Q.** And the viability, T/C (second compound 0.1 µM, first compound 1 µM)?
**A.** 58.9%

**Q.** And the viability, T/C (second compound 0.1 µM, first compound 3.16 µM)?
**A.** 38.2%

**Q.** What about the viability, T/C (second compound 0.1 µM, first compound 10 µM) of the same molecule?
**A.** 45.8%

**Q.** And the viability, T/C (second compound 0.316 µM, first compound 0.0316 µM)?
**A.** 85.2%

**Q.** What about the viability, T/C (second compound 0.316 µM, first compound 0.1 µM) of the same molecule?
**A.** 78.5%

**Q.** And the viability, T/C (second compound 0.316 µM, first compound 0.316 µM)?
**A.** 78.2%

**Q.** What about the viability, T/C (second compound 0.316 µM, first compound 1 µM) of the same molecule?
**A.** 75.3%

**Q.** And the viability, T/C (second compound 0.316 µM, first compound 3.16 µM)?
**A.** 27.9%

**Q.** And the viability, T/C (second compound 0.316 µM, first compound 10 µM)?
**A.** 20.4%

**Q.** And the viability, T/C (second compound 1 µM, first compound 0.0316 µM)?
**A.** 61.4%

**Q.** And the viability, T/C (second compound 1 µM, first compound 0.1 µM)?
**A.** 91.5%

**Q.** And the viability, T/C (second compound 1 µM, first compound 0.316 µM)?
**A.** 79.2%

**Q.** What about the viability, T/C (second compound 1 µM, first compound 1 µM) of the same molecule?
**A.** 81%

**Q.** What about the viability, T/C (second compound 1 µM, first compound 3.16 µM) of the same molecule?
**A.** 30.4%

**Q.** And the viability, T/C (second compound 1 µM, first compound 10 µM)?
**A.** 44.9%

**Q.** And the viability, T/C (second compound 3.16 µM, first compound 0.0316 µM)?
**A.** 64.5%

**Q.** What about the viability, T/C (second compound 3.16 µM, first compound 0.1 µM) of the same molecule?
**A.** 85.5%

**Q.** What about the viability, T/C (second compound 3.16 µM, first compound 0.316 µM) of the same molecule?
**A.** 79.4%

**Q.** What about the viability, T/C (second compound 3.16 µM, first compound 1 µM) of the same molecule?
**A.** 54.5%

**Q.** What about the viability, T/C (second compound 3.16 µM, first compound 3.16 µM) of the same molecule?
**A.** 44%

**Q.** What about the viability, T/C (second compound 3.16 µM, first compound 10 µM) of the same molecule?
**A.** 36.7%

**Q.** What about the viability, T/C (second compound 10 µM, first compound 0.0316 µM) of the same molecule?
**A.** 87.8%

**Q.** And the viability, T/C (second compound 10 µM, first compound 0.1 µM)?
**A.** 96.4%

**Q.** And the viability, T/C (second compound 10 µM, first compound 0.316 µM)?
**A.** 95.9%

**Q.** And the viability, T/C (second compound 10 µM, first compound 1 µM)?
**A.** 70.5%

**Q.** What about the viability, T/C (second compound 10 µM, first compound 3.16 µM) of the same molecule?
**A.** 37.2%

**Q.** What about the viability, T/C (second compound 10 µM, first compound 10 µM) of the same molecule?
**A.** 22.6%
